Measured values from US9670221B2, “Furopyridines as bromodomain inhibitors” (GlaxoSmithKline Intellectual Property (No.2) Limited, priority 2013, dated 2017).
Counter-ions that a name gives are not always drawn.

These molecules were tested on Bromodomains BRD2, BRD3, BRD4 and BRDT (BD1/BD2 single residue mutants) (assay: Binding of the fluoroligand to mutated versus non-mutated bromodomain). Details: single residue mutations in the acetyl lysine binding pocket.
Design: species or system Human
Protocol: (§1) Binding was assessed using a time resolved fluorescent resonance energy transfer binding assay. This utilises a 6 His purification tag at the N-terminal of the proteins as an epitope for an anti-6 His antibody labeled with Europium chelate (PerkinElmer AD0111) allowing binding of the Europium to the proteins which acts as the donor fluorophore. A small molecule, high affinity binder of the bromodomains BRD2, BRD3, BRD4 and BRDT has been labeled with Alexa Fluor647 (Reference Compound X) and this acts as the acceptor in the FRET pair.
The binding of the compounds of formula (I) to Bromodomains BRD2, BRD3, BRD4 and BRDT was assessed using mutated proteins to detect differential binding to either Binding Domain 1 (BD1) or Binding Domain 2 (BD2) on the bromodomain. These single residue mutations in the acetyl lysine binding pocket greatly lower the affinity of the fluoroligand (Reference Compound X) for the mutated domain (>1000 fold selective for the non-mutated domain). Therefore in the final assay conditions, binding of the fluoroligand to the mutated domain cannot be detected and subsequently the assay is suitable to determine the binding of compounds to the single non-mutated bromodomain. […]

| SMILES | selectivity of the fluoroligand for the non-mutated domain over the mutated domain |
| --- | --- |
| COc1ccc2c(c1)C(c1ccc(Cl)cc1)=N[C@@H](CC(=O)NCCCCCNC(=O)CCCCCC1(C)/C(=C/C=C/C=C/C3=[N+](CCCCS(=O)(=O)O)c4ccc(S(=O)(=O)O)cc4C3(C)C)N(CCCCS(=O)(=O)[O-])c3ccc(S(=O)(=O)O)cc31)c1nnc(C)n1-2 (stereo partly drawn) [Reference Compound X] | > 1000 fold |

The molecules below were run against T1, BRD4 BD1 (Homo sapiens, UniProt O60885, Y390A) (assay: TR-FRET binding assay, BRD4 BD1 (mutant protein)). Details: BRD4 (1-477) mutant, 10 nM protein, read-out: pIC50 in the BRD4 BD1 assay (converted).
T1 construct: BRD4 (1-477) (Y97A) and (Y390A); made in house; host or cells: E. coli (pET15b vector)
Protocol: Time Resolved Fluorescence Resonance Energy Transfer (TR-FRET) Assay
as §1
Assay Principle: In the absence of a competing compound, excitation of the Europium causes the donor to emit at λ618 nm which excites the Alexa labelled bromodomain binding compound leading to an increased energy transfer that is measurable at λ647 […]. In the presence of a sufficient concentration of a compound that can bind these proteins, the interaction is disrupted leading to a quantifiable drop in fluorescent resonance energy transfer.
The binding of the compounds of formula (I) to Bromodomains BRD2, BRD3, BRD4 and BRDT was assessed using mutated proteins to detect differential binding to either Binding Domain 1 (BD1) or Binding Domain 2 (BD2) on the bromodomain. These single residue mutations in the acetyl lysine binding pocket greatly lower the affinity of the fluoroligand (Reference Compound X) for the mutated domain (>1000 fold selective for the non-mutated domain). Therefore in the final assay conditions, binding of the fluoroligand to the mutated domain cannot be detected and subsequently the assay is suitable to determine the binding of compounds to the single non-mutated bromodomain.
Protein production: Recombinant Human Bromodomains [(BRD2 (1-473) (Y113A) and (Y386A), BRD3 (1-435) (Y73A) and (Y348A) BRD4 (1-477) (Y97A) and (Y390A) and BRDT (1-397) (Y66A) and (Y309A)] were expressed in E. coli cells (in pET15b vector for BRD2/3/4 and in pET28a vector for BRDT) with a 6-His tag at the N-terminal. The His-tagged Bromodomain pellet was resuspended in 50 mM HEPES (pH7.5), 300 mM NaCl, 10 mM imidazole & 1 μl/mL protease inhibitor cocktail and extracted from the E. coli cells using sonication and purified using a nickel sepharose high performance column, the proteins were washed and then eluted with a linear gradient of 0-500 mM imidazole with buffer 50 mM HEPES (pH7.5), 150 mM NaCl, 500 mM imidazole, over 20 column volumes. Final purification was completed by Superdex 200 prep grade size exclusion column. Purified protein was stored at −80° C. in 20 mM HEPES pH 7.5 and 100 mM NaCl. Protein identity was confirmed by peptide mass fingerprinting and predicted molecular weight confirmed by mass spectrometry.
Protocol for Bromodomain BRD2, 3, 4 and T, BD1^+BD2 mutant assays: All assay components were dissolved in buffer composition of 50 mM HEPES pH7.4, 50 mM NaCl, 5% Glycerol, 1 mM DTT and 1 mM CHAPS. The final concentration of bromodomain proteins were 10 nM and the Alexa Fluor647 ligand was at Kd. These components were premixed and 5 μl of this reaction mixture was added to all wells containing 50 nl of various concentrations of test compound or DMSO vehicle (0.5% DMSO final) in Greiner 384 well black low volume microtitre plates and incubated in dark for 30 minutes at room temperature. 5 μl of detection mixture containing 1.5 nM final concentration anti-6His Europium chelate was added to all wells and a further dark incubation of at least 30 minutes was performed. Plates were then read on the Envision platereader, (λex=317 nm, donor λem=615 nm; acceptor λem=665 nm; Dichroic LANCE dual). Time resolved fluorescent intensity measurements were made at both emission wavelengths and the ratio of acceptor/donor was calculated and used for data analysis. All data was normalized to the mean of 16 high (inhibitor control—Example 11 of WO 2011/054846A1) and 16 low (DMSO) control wells on each plate. […]

| SMILES | IC50 |
| --- | --- |
| CCNC(=O)c1ccc(-c2cn(C)c(=O)c3cc(CN4CCN(S(C)(=O)=O)CC4)oc23)c(OCC2CC2)c1 [Example 68, 3-(cyclopropylmethoxy)-N-ethyl-4-(5-methyl-2-((4-(methylsulfonyl)piperazin-1-yl)methyl)-4-oxo-4,5-dihydrofuro[3,2-c]pyridin-7-yl)benzamide] | ≤ 100 nM |
| C[C@@H]1CN(S(C)(=O)=O)CCN1Cc1cc2c(=O)n(C)cc(-c3ccncc3OCCF)c2o1 [Example 72, (R)-7-(3-(2-fluoroethoxy)pyridin-4-yl)-5-methyl-2-((2-methyl-4-(methylsulfonyl)piperazin-1-yl)methyl)furo[3,2-c]pyridin-4(5H)-one] | ≤ 100 nM |
| C[C@@H]1CN(S(C)(=O)=O)CCN1Cc1cc2c(=O)n(C)cc(-c3ccnc(N)c3)c2o1 [Example 59, (R)-7-(2-aminopyridin-4-yl)-5-methyl-2-((2-methyl-4-(methylsulfonyl)piperazin-1-yl)methyl)furo[3,2-c]pyridin-4(5H)-one] | ≤ 100 nM |
| Cn1cc(-c2ccnc(OCC3CCOCC3)c2)c2oc(CN3CCN(S(C)(=O)=O)CC3)cc2c1=O [Example 7, 5-methyl-2-((4-(methylsulfonyl)piperazin-1-yl)methyl)-7-(2-((tetrahydro-2H-pyran-4-yl)methoxy)pyridin-4-yl)furo[3,2-c]pyridin-4(5H)-one] | ≤ 100 nM |
| CCC(=O)Nc1cc(-c2cn(C)c(=O)c3cc(CN4CCN(S(C)(=O)=O)C[C@H]4C)oc23)ccn1 [Example 25, (R)—N-(4-(5-methyl-2-((2-methyl-4-(methylsulfonyl)piperazin-1-yl)methyl)-4-oxo-4,5-dihydrofuro[3,2-c]pyridin-7-yl)pyridin-2-yl)propionamide] | ≤ 100 nM |
| C[C@@H]1CN(S(C)(=O)=O)CCN1Cc1cc2c(=O)n(C)cc(-c3ccnc(OCCN4CCCC4)c3)c2o1 [Example 27, (R)-5-methyl-2-((2-methyl-4-(methylsulfonyl)piperazin-1-yl)methyl)-7-(2-(2-(pyrrolidin-1-yl)ethoxy)pyridin-4-yl)furo[3,2-c]pyridin-4(5H)-one] | ≤ 100 nM |
| Cn1cc(-c2ccncc2NCC2CC2)c2oc(CN3CCN(S(C)(=O)=O)CC3)cc2c1=O [Example 39, 7-(3-((cyclopropylmethyl)amino)pyridin-4-yl)-5-methyl-2-((4-(methylsulfonyl)piperazin-1-yl)methyl)furo[3,2-c]pyridin-4(5H)-one] | ≤ 100 nM |
| C[C@@H]1CN(S(C)(=O)=O)CCN1Cc1cc2c(=O)n(C)cc(-c3ccncc3OCC3CCO3)c2o1 (stereo partly drawn) [Example 41, 5-methyl-2-(((R)-2-methyl-4-(methylsulfonyl)piperazin-1-yl)methyl)-7-(3-(oxetan-2-ylmethoxy)pyridin-4-yl)furo[3,2-c]pyridin-4(5H)-one] | ≤ 100 nM |
| C[C@@H]1CN(S(C)(=O)=O)CCN1Cc1cc2c(=O)n(C)cc(-c3ccnc(OCCN4CCCC4=O)c3)c2o1 [Example 35, (R)-5-methyl-2-((2-methyl-4-(methylsulfonyl)piperazin-1-yl)methyl)-7-(2-(2-(2-oxopyrrolidin-1-yl)ethoxy)pyridin-4-yl)furo[3,2-c]pyridin-4(5H)-one] | ≤ 10 nM |
| C[C@@H]1CN(S(C)(=O)=O)CCN1Cc1cc2c(=O)n(C)cc(-c3ccncc3O)c2o1 [Example 60, (R)-7-(3-hydroxypyridin-4-yl)-5-methyl-2-((2-methyl-4-(methylsulfonyl)piperazin-1-yl)methyl)furo[3,2-c]pyridin-4(5H)-one] | ≤ 100 nM |
| CC(Nc1cccc(-c2cn(C)c(=O)c3cc(CN4CCN(S(C)(=O)=O)CC4)oc23)c1)c1ccccc1 (stereo not drawn) [Example 15, 5-methyl-2-((4-(methylsulfonyl)piperazin-1-yl)methyl)-7-(3-((1-phenylethyl)amino)phenyl)furo[3,2-c]pyridin-4(5H)-one] | ≤ 100 nM |
| C[C@@H]1CN(S(C)(=O)=O)CCN1Cc1cc2c(=O)n(C)cc(-c3cccnc3NCC3CC3)c2o1 [Example 49, (R)-7-(2-((cyclopropylmethyl)amino)pyridin-3-yl)-5-methyl-2-((2-methyl-4-(methylsulfonyl)piperazin-1-yl)methyl)furo[3,2-c]pyridin-4(5H)-one] | ≤ 100 nM |
| C[C@@H]1CN(S(C)(=O)=O)CCN1Cc1cc2c(=O)n(C)cc(-c3ccncc3OC3CC3)c2o1 [Example 73, (R)-7-(3-cyclopropoxypyridin-4-yl)-5-methyl-2-((2-methyl-4-(methylsulfonyl)piperazin-1-yl)methyl)furo[3,2-c]pyridin-4(5H)-one] | ≤ 100 nM |
| CC(=O)N1CCN(Cc2cc3c(=O)n(C)cc(-c4ccnc(OCC5CCOCC5)c4)c3o2)C(C)C1 (stereo not drawn) [Example 47, 2-((4-acetyl-2-methylpiperazin-1-yl)methyl)-5-methyl-7-(2-((tetrahydro-2H-pyran-4-yl)methoxy)pyridin-4-yl)furo[3,2-c]pyridin-4(5H)-one hydrochloride] | ≤ 100 nM |
| CC(=O)Nc1cc(-c2cn(C)c(=O)c3cc(CN4CCS(=O)(=O)CC4C)oc23)ccn1 (stereo not drawn) [Example 102, N-(4-(5-methyl-2-((3-methyl-1,1-dioxidothiomorpholino)methyl)-4-oxo-4,5-dihydrofuro[3,2-c]pyridin-7-yl)pyridin-2-yl)acetamide] | ≤ 100 nM |
| C[C@@H]1CN(S(C)(=O)=O)CCN1Cc1cc2c(=O)n(C)cc(-c3ccncc3OCC3COC3)c2o1 [Example 46, (R)-5-methyl-2-((2-methyl-4-(methylsulfonyl)piperazin-1-yl)methyl)-7-(3-(oxetan-3-ylmethoxy)pyridin-4-yl)furo[3,2-c]pyridin-4(5H)-one] | ≤ 100 nM |
| CC(=O)Nc1cc(-c2cn(C)c(=O)c3cc(CN4CCN(S(C)(=O)=O)[C@@H](C)C4)oc23)ccn1 [Example 108, (S)—N-(4-(5-methyl-2-((3-methyl-4-(methylsulfonyl)piperazin-1-yl)methyl)-4-oxo-4,5-dihydrofuro[3,2-c]pyridin-7-yl)pyridin-2-yl)acetamide] | ≤ 100 nM |
| CC(=O)Nc1cc(-c2cn(C)c(=O)c3cc(CN4CCNC(=O)CC4)oc23)ccn1 [Example 82, N-(4-(5-methyl-4-oxo-2-((5-oxo-1,4-diazepan-1-yl)methyl)-4,5-dihydrofuro[3,2-c]pyridin-7-yl)pyridin-2-yl)acetamide] | ≤ 100 nM |
| CC(c1cc2c(=O)n(C)cc(-c3ccnc(OCC4CCOCC4)c3)c2o1)N1CCN(S(C)(=O)=O)CC1 (stereo not drawn) [Example 21, 5-methyl-2-(1-(4-(methylsulfonyl)piperazin-1-yl)ethyl)-7-(2-((tetrahydro-2H-pyran-4-yl)methoxy)pyridin-4-yl)furo[3,2-c]pyridin-4(5H)-one formate] | ≤ 100 nM |
| C[C@@H]1CN(S(C)(=O)=O)CCN1Cc1cc2c(=O)n(C)cc(-c3ccncc3OCC(F)F)c2o1 [Example 74, (R)-7-(3-(2,2-difluoroethoxy)pyridin-4-yl)-5-methyl-2-((2-methyl-4-(methylsulfonyl)piperazin-1-yl)methyl)furo[3,2-c]pyridin-4(5H)-one] | ≤ 100 nM |
